Assay: xn = mol fraction of the nth substance listed

CC(C)CCO + c1ccccc1
viscosity [mPa·s], 101 kPa
Conditions	293.15 K	298.15 K	303.15 K	308.15 K	313.15 K	318.15 K	323.15 K
x1 = 0.05	0.673	0.627	0.586	0.548	0.515	0.484	0.456
x1 = 0.1	0.705	0.656	0.612	0.573	0.537	0.505	0.475
x1 = 0.15	0.739	0.688	0.641	0.6	0.562	0.527	0.496
x1 = 0.2	0.777	0.723	0.673	0.629	0.589	0.552	0.519
x1 = 0.25	0.819	0.761	0.708	0.661	0.618	0.58	0.544
x1 = 0.3	0.866	0.804	0.748	0.697	0.651	0.61	0.572
x1 = 0.35	0.919	0.852	0.791	0.737	0.688	0.643	0.602
x1 = 0.4	0.979	0.906	0.84	0.782	0.728	0.68	0.636
x1 = 0.45	1.046	0.967	0.896	0.832	0.774	0.722	0.674
x1 = 0.5	1.124	1.037	0.96	0.89	0.826	0.769	0.717
x1 = 0.55	1.214	1.119	1.033	0.956	0.886	0.823	0.766
x1 = 0.6	1.321	1.214	1.118	1.032	0.955	0.885	0.822
x1 = 0.65	1.447	1.326	1.219	1.122	1.036	0.957	0.887
x1 = 0.7	1.6	1.462	1.339	1.23	1.131	1.042	0.962
x1 = 0.75	1.789	1.629	–	–	–	–	–

NCCCC[C@H](N)C(=O)[O-].[K+] + O
viscosity [mPa·s]
Conditions	293.15 K	298.15 K	303.15 K	308.15 K	313.15 K	318.15 K	323.15 K
100 kPa, x1 = 0.01	–	1.138	–	–	–	–	–
100 kPa, x1 = 0.02	–	1.642	–	–	–	–	–
101.3 kPa, x1 = 0.00479	1.183	1.051	0.9411	0.847	0.7675	0.7007	0.6435
101.3 kPa, x1 = 0.00923	1.393	1.226	1.092	0.9834	0.8868	0.8069	0.7376
101.3 kPa, x1 = 0.015	1.599	1.408	1.251	1.12	1.01	0.916	0.8358
101.3 kPa, x1 = 0.01985	1.92	1.683	1.49	1.328	1.194	1.077	0.9784
101.3 kPa, x1 = 0.03254	2.783	2.408	2.108	1.861	1.655	1.483	1.337
101.3 kPa, x1 = 0.0375	2.961	2.59	2.233	1.989	1.744	1.577	1.404
101.3 kPa, x1 = 0.0395	–	–	1.868	–	1.448	–	1.128
101.3 kPa, x1 = 0.04425	4.174	–	3.071	–	2.351	2.094	1.872
101.3 kPa, x1 = 0.0501	4.177	3.576	3.074	2.687	2.353	2.092	1.861
101.3 kPa, x1 = 0.0595	–	–	3.237	–	2.45	–	1.863
101.3 kPa, x1 = 0.06157	6.645	5.544	4.71	4.049	3.517	3.081	2.722
101.3 kPa, x1 = 0.0617	5.683	4.806	4.086	3.537	3.072	2.71	2.394
101.3 kPa, x1 = 0.0705	7.066	5.922	4.999	4.299	3.709	3.251	2.858
101.3 kPa, x1 = 0.0741	7.638	6.379	5.359	4.594	3.949	3.453	3.025
101.3 kPa, x1 = 0.0855	–	–	4.606	–	3.452	–	2.598

From the CheMixHub viscosity set
